Legend:
Format in all cases: functional
[1] = test system: Galendromus occidentalis; test: Ovicidal activity against Metaseiulus occidentalis eggs in bean leaf disk infested with two-spotted spider mites assessed as corrected cumulative mortality at 442 g/L SC formulation treated using worst-case laboratory exposure procedure measured after 144 hr (reference value: 0.7%)
[2] = test system: Galendromus occidentalis; test: Toxicity against Metaseiulus occidentalis adults in bean leaf disk infested with two-spotted spider mites assessed as repellency at 0.1341 g AI/L treated using worst-case laboratory exposure procedure measured after 24 hr (reference value: 3.6%)
[3] = test system: Galendromus occidentalis; test: Toxicity against Metaseiulus occidentalis adults in bean leaf disk infested with two-spotted spider mites assessed as corrected mortality at 4x0.1341 g AI/L treated using worst-case laboratory exposure procedure measured after 72 hr
[4] = test system: Galendromus occidentalis; test: Toxicity against Metaseiulus occidentalis adults in bean leaf disk infested with two-spotted spider mites assessed as repellency at 0.1341 g AI/L treated using worst-case laboratory exposure procedure measured after 72 hr (reference value: 16.1%)
[5] = test system: Galendromus occidentalis; test: Toxicity against Metaseiulus occidentalis adults in bean leaf disk infested with two-spotted spider mites assessed as average number of eggs laid (fecundity) at 0.1341 g AI/L treated using worst-case laboratory exposure procedure measured after 24 hr (reference value: 2.11/day)
[6] = test system: Galendromus occidentalis; test: Toxicity against Metaseiulus occidentalis adults in bean leaf disk infested with two-spotted spider mites assessed as average number of eggs laid (fecundity) at 0.1341 g AI/L treated using worst-case laboratory exposure procedure measured after 72 hr (reference value: 2.23/day)
[7] = test system: Galendromus occidentalis; test: Toxicity against Metaseiulus occidentalis adults in bean leaf disk infested with two-spotted spider mites assessed as average number of eggs laid (fecundity) at 0.1341 g AI/L treated using worst-case laboratory exposure procedure measured after 48 hr (reference value: 2.30/day)
[8] = test system: Galendromus occidentalis; test: Toxicity against Metaseiulus occidentalis adults in bean leaf disk infested with two-spotted spider mites assessed as corrected mortality at 0.1341 g AI/L treated using worst-case laboratory exposure procedure measured after 72 hr
[9] = test system: Galendromus occidentalis; test: Toxicity against Metaseiulus occidentalis adults in bean leaf disk infested with two-spotted spider mites assessed as repellency at 0.1341 g AI/L treated using worst-case laboratory exposure procedure measured after 48 hr (reference value: 13.6%)
[10] = test system: Galendromus occidentalis; test: Toxicity against Metaseiulus occidentalis adults in bean leaf disk infested with two-spotted spider mites assessed as corrected mortality at 2x0.1341 g AI/L treated using worst-case laboratory exposure procedure measured after 72 hr

CC[C@H]1CCC[C@H](O[C@H]2CC[C@H](N(C)C)[C@@H](C)O2)[C@@H](C)C(=O)C2=C[C@@H]3[C@@H](C=C(C)[C@@H]4C[C@@H](O[C@@H]5O[C@@H](C)[C@H](OC)[C@@H](OC)[C@H]5OC)C[C@@H]34)[C@@H]2CC(=O)O1.CC[C@H]1CCC[C@H](O[C@H]2CC[C@H](N(C)C)[C@@H](C)O2)[C@@H](C)C(=O)C2=C[C@@H]3[C@@H](C=C[C@@H]4C[C@@H](O[C@@H]5O[C@@H](C)[C@H](OC)[C@@H](OC)[C@H]5OC)C[C@@H]34)[C@@H]2CC(=O)O1
mortality at 442000 µg/mL (stock) [1]: 6.6%
Repellency [2]: 10.9%
mortality [3]: 0%
Repellency [4]: 28.8%
Activity [5]: 1.57 day⁻¹
Activity [6]: 2.28 day⁻¹
Activity [7]: 1.59 day⁻¹
mortality [8]: 0.4%
Repellency [9]: 24.4%
mortality [10]: 0%

— ChEMBL document CHEMBL3045618, “Effect of seven new orchard pesticides on Galendromus occidentalis in laboratory studies” (2009)
